Here are results for 18 compounds from PubChem BioAssay (NCI).

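Where inhibition never reached the appropriate level, the endpoint shown equals the highest concentration tested. Otherwise, values were interpolated linearly from a five-concentration, 48-hour dose response in 96-well plates. At the TGI there is no net growth.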

Some test systems named below: DMS 114 small cell lung; LXFL 529 NSCLC; M19-MEL melanoma; XF 498 CNS; SNB-78 CNS; DLD-1 colon; DMS 273 small cell lung; HOP-18 NSCLC; RXF-631 renal.
Common to all, as to test: NCI anticancer screen, dose series, 48 h

Turning to `O=C(Nc1ccccc1-c1nc2ccccc2[nH]c1=O)c1ccccc1`, the TGI in the assay on DMS 114 small cell lung worked out at 40.7 µM; with LXFL 529 NSCLC, 69.2 µM; in the assay with M19-MEL melanoma it was 91.2 µM; with XF 498 CNS, 49.9 µM; in the assay on SNB-78 CNS it was 69.2 µM; with DLD-1 colon, 68.2 µM. Besides, in the assay with DMS 273 small cell lung, the TGI was 52.6 µM.

Regarding `C[Si](C)(C)OC1CC(=O)OC1n1cc(F)c(=O)[nH]c1=O` (stereo not drawn), the TGI with DMS 114 small cell lung, with LXFL 529 NSCLC, in the assay on M19-MEL melanoma, with XF 498 CNS, in the assay with DLD-1 colon and in the assay on DMS 273 small cell lung was greater than 100 µM each time. Further, the TGI in the assay with HOP-18 NSCLC and with RXF-631 renal was greater than 100 µM each time.

For the compound `COc1cc2cc3c4cc(OC)c(OC)cc4cc[n+]3c(C)c2cc1OC` (tested in a mixture with another compound), the TGI in the assay with DMS 114 small cell lung is greater than 100 µM; in the assay with LXFL 529 NSCLC, greater than 100 µM; with M19-MEL melanoma, greater than 100 µM; in the assay on XF 498 CNS it was greater than 100 µM; with SNB-78 CNS, greater than 92.9 µM; with DLD-1 colon it was greater than 100 µM. Besides, the TGI with DMS 273 small cell lung and in the assay with HOP-18 NSCLC was greater than 100 µM throughout.

Take `CC1=CCC(O)C=CC(C)C(O)C(C)C=C(C)C(=O)c2c(O)c(C)cc3c2C(=O)C(N)=C(NC(=O)/C=C\C=C/C=CC(C)C(O)CC1=O)C3=O` (stereo not drawn): the TGI in the assay with DMS 114 small cell lung, in the assay on LXFL 529 NSCLC, in the assay on M19-MEL melanoma, with XF 498 CNS, with SNB-78 CNS and in the assay on DLD-1 colon was greater than 100 µM throughout. In the assay with DMS 273 small cell lung, this compound registered a TGI greater than 100 µM.

Take `Cc1cc(N(CCC#N)CCC#N)ccc1/C=C(\NC(=O)/C=C/c1ccccc1)C(N)=O`: the TGI in the assay with DMS 114 small cell lung, with LXFL 529 NSCLC, in the assay with M19-MEL melanoma, in the assay on XF 498 CNS, with SNB-78 CNS and with DLD-1 colon was greater than 100 µM throughout. In addition, in the assay on DMS 273 small cell lung, the TGI is greater than 100 µM.

`O=C1C2C3C=C4c5ccccc5N(c5ccccc5)C4(C2C(=O)N1c1ccc([N+](=O)[O-])cc1)[C@H]1C(=O)N(c2ccc([N+](=O)[O-])cc2)C(=O)[C@@H]31` (stereo partly drawn): the TGI in the assay with DMS 114 small cell lung, in the assay with M19-MEL melanoma, with SNB-78 CNS, in the assay with DLD-1 colon, in the assay on DMS 273 small cell lung and in the assay on HOP-18 NSCLC was greater than 100 µM each time.

As for `Nc1nc([O-])c2c(n1)[n+](C1OC(CO)C(O)C1O)cn2CCO` (stereo not drawn), the TGI in the assay on DMS 114 small cell lung, in the assay on LXFL 529 NSCLC, with M19-MEL melanoma, in the assay with XF 498 CNS, in the assay with SNB-78 CNS and in the assay with DLD-1 colon was greater than 100 µM throughout. Also, the TGI in the assay with DMS 273 small cell lung, in the assay on HOP-18 NSCLC and in the assay on RXF-631 renal was greater than 100 µM each time.

For `COC(=O)C(Cc1nc2ccccc2[nH]c1=O)C(NO)C(=O)Nc1c(Cl)cc([N+](=O)[O-])cc1Cl` (stereo not drawn), the TGI with DMS 114 small cell lung was 54.8 µM; in the assay on SNB-78 CNS, greater than 100 µM; in the assay on DLD-1 colon it was greater than 100 µM.

Take `Cc1cc(NS(=O)(=O)c2ccc(Nc3c4ccccc4nc4c(C(=O)N5CCN(CCO)CC5)cccc34)cc2)no1`: the TGI with DMS 114 small cell lung, with LXFL 529 NSCLC, in the assay on M19-MEL melanoma, with XF 498 CNS, in the assay with SNB-78 CNS and in the assay on DLD-1 colon was greater than 100 µM throughout. Further, the TGI in the assay with DMS 273 small cell lung and in the assay on HOP-18 NSCLC was greater than 100 µM in each case.

Turning to `CCCCCCCCCCCC(=O)OCC(C[As](=O)(O)O)OC(=O)CCCCCCCCCCC` (stereo not drawn), the TGI with DMS 114 small cell lung amounted to 3.13 µM; with LXFL 529 NSCLC, 5.21 µM; in the assay on M19-MEL melanoma, 15.8 µM; with XF 498 CNS it was 7.28 µM; with SNB-78 CNS it was 7.69 µM; in the assay with DLD-1 colon, 31.3 µM. Besides, the figures for the TGI with DMS 273 small cell lung and with HOP-18 NSCLC were 10.1 µM and 14.1 µM, respectively.

For `Cn1cc(C2(C)CC(C)(C)c3c2n(C)c2ccccc32)c2ccccc21` (stereo not drawn), the TGI with DMS 114 small cell lung, with LXFL 529 NSCLC, in the assay on M19-MEL melanoma, with XF 498 CNS, in the assay on SNB-78 CNS and with DLD-1 colon was greater than 100 µM throughout. This compound also displayed a TGI in the assay on DMS 273 small cell lung greater than 100 µM.

With `CCCCCCCCCCCCCCCC(=O)OCC(C[As](=O)(O)O)OC(=O)CCCCCCCCCCCCCCC` (stereo not drawn), the TGI with DMS 114 small cell lung is greater than 100 µM; in the assay on LXFL 529 NSCLC it was greater than 100 µM; in the assay on M19-MEL melanoma it was greater than 100 µM; in the assay with XF 498 CNS, 70.9 µM; in the assay with SNB-78 CNS, 80.8 µM; in the assay with DLD-1 colon, greater than 100 µM. Also, the TGI in the assay on DMS 273 small cell lung, in the assay on HOP-18 NSCLC and in the assay with RXF-631 renal was greater than 100 µM throughout.

Consider `CCOC(=O)CC(C)C1(C(=O)OCC)CCCCC1=O` (stereo not drawn), for which the TGI in the assay on DMS 114 small cell lung was 39.4 µM; with LXFL 529 NSCLC, greater than 100 µM; in the assay with M19-MEL melanoma, greater than 100 µM; in the assay with XF 498 CNS it was greater than 100 µM; in the assay with SNB-78 CNS it was greater than 100 µM; in the assay with DLD-1 colon it was greater than 100 µM. The TGI with DMS 273 small cell lung was 32.5 µM; in the assay with HOP-18 NSCLC, greater than 100 µM; in the assay on RXF-631 renal, greater than 100 µM.

As for `O=Cc1ccccc1COC(=O)c1cc(C(=O)OCc2ccccc2C=O)c(C(=O)OCc2ccccc2C=O)cc1C(=O)OCc1ccccc1C=O`, the TGI with DMS 114 small cell lung, in the assay on LXFL 529 NSCLC, with M19-MEL melanoma, with XF 498 CNS, with SNB-78 CNS and in the assay on DLD-1 colon was greater than 100 µM in each case. Further, the TGI in the assay on DMS 273 small cell lung and in the assay on HOP-18 NSCLC was greater than 100 µM in each case.

Take `O=C1c2ccsc2C(=O)c2sc(CO)cc21`: the TGI came out at 0.304 µM in the assay with LXFL 529 NSCLC; 1.14 µM in the assay on XF 498 CNS; 0.978 µM in the assay with SNB-78 CNS; 0.326 µM in the assay on DLD-1 colon; 0.115 µM with DMS 273 small cell lung; 0.113 µM in the assay with HOP-18 NSCLC.

Turning to `O=c1cc(-c2ccc(Oc3ccccc3)cc2)[nH]c2cc3c(cc12)OCO3`, the TGI with DMS 114 small cell lung, in the assay on LXFL 529 NSCLC, in the assay with M19-MEL melanoma, with XF 498 CNS, in the assay on DLD-1 colon and with DMS 273 small cell lung was greater than 100 µM each time.

For `O=C(CC(=O)n1nc(-c2ccccc2)c(N=Nc2ccc(Cl)cc2)c1-c1ccccc1)Nc1ccc(Cl)cc1`, the TGI in the assay with DMS 114 small cell lung is greater than 56.9 µM; with LXFL 529 NSCLC, greater than 100 µM; in the assay with M19-MEL melanoma, greater than 76.2 µM; in the assay with SNB-78 CNS, greater than 100 µM; with DLD-1 colon, 44.7 µM; with DMS 273 small cell lung, greater than 100 µM. The TGI with HOP-18 NSCLC and with RXF-631 renal was greater than 100 µM throughout.

As to `O=C(Nc1cc(Cl)c(Cl)cc1Cl)C(=O)C1C(=O)NC(=S)NC1=O`, the TGI with DMS 114 small cell lung, with LXFL 529 NSCLC, in the assay with M19-MEL melanoma, in the assay with XF 498 CNS, in the assay with SNB-78 CNS and with DLD-1 colon was greater than 100 µM throughout. Further, the TGI in the assay with DMS 273 small cell lung, in the assay on HOP-18 NSCLC and in the assay on RXF-631 renal was greater than 100 µM in each case.
